Laboratory results taken from patent US9572799B2, “Pyrazolopyridine derivatives for use in the treatment of bladder cancer” (SANOFI, priority 2013, dated 2017).

Tests used:
[1] = test system: bladder cancer tumour cells of TCC97-7 type carrying the Ser249Cys mutation of FGF receptor 3; assay: Inhibition of serum-induced proliferation of TCC97-7 bladder cancer cells (cell-covered surface area, Incucyte); format: cell-based; details: 72 h, TCC97-7 cell line in the presence of serum, after 3 days
Procedure: Evaluation of the Capacity of the FGF-R Antagonists to Inhibit Serum-Induced Proliferation of Bladder Cancer Tumour Cells of TCC97-7 Type Carrying the Ser249Cys Mutation of FGF Receptor 3
To do this, 2000 cells are seeded in the morning in 50 μl of complete medium (Ham-F/12, 1% FCS, 2 mM glutamine, non-essential amino acids, sodium pyruvate, 1% insulin/transferrin/selenium, hydrocortisone). In the evening, 50 μl of the various compounds are added at 2 or 20 μM after dilution in complete culture medium in order to obtain final concentrations of 1 or 10 μM. After 3 days, cell proliferation is evaluated by measuring the cell-covered surface area of a well of a 96 well plate. This surface area is measured using an Incucyte apparatus (Essen BioScience). The percentage inhibition of the cell proliferation is calculated by considering the surface area occupied by the TCC97-7 cells cultured in the absence of FGF-R antagonists to be 0% inhibition. 100% inhibition would correspond to a well no longer containing cells.
Thus, compounds 1 to 24 are capable of inhibiting TCC97-7 cell proliferation by more than 20% at the dose of 1 or 10 μM. (Table No. 2).

[2] = test system: TCC97-7 bladder cancer cells carrying the Ser249Cys mutation of FGF-R3; assay: Reduction of intracellular ATP content of TCC97-7 cells in serum-supplemented medium (Cell Titer-Glo); format: cell-based; details: 72 h, TCC97-7 cells cultured in the presence of serum, after 3 days, read-out: Inhibition of the amount of intracellular ATP (%)
Procedure: Evaluation of the Capacity of FGF-R Antagonists to Reduce the ATP Content of TCC97-7 Bladder Cancer Cells Carrying the Ser249Cys Mutation of FGF-R3, Cultured in a Serum-Supplemented Medium
To do this, 3000 cells are seeded in 50 μl of complete medium (Ham-F/12, 1% FCS, 2 mM glutamine, non-essential amino acids, sodium pyruvate, 1% insulin/transferrin/selenium, hydrocortisone). 16 hours later, 50 μl of the various compounds are added at 2 and 20 μM after dilution in complete culture medium in order to obtain final concentrations of 1 and 10 μM. After 3 days, the ATP content of the cells is measured using the Cell Titer-Glo® Luminescent Cell Viability Assay kit (Promega, France) according to the supplier's recommendations. The percentage inhibition of the amount of intracellular ATP is calculated by considering the ATP content of the cells cultured in the absence of antagonist to be 0% inhibition. 100% inhibition would correspond to a well in which the ATP content is zero.
Thus, compounds 1 to 24 are capable of inhibiting the amount of intracellular ATP in TCC97-7 cells by more than 20% at the dose of 1 or 10 μM (Table No. 3).

## COc1cccc(-c2n[nH]c3nc(-c4ccc(N)c(C#N)c4)cc(C(F)F)c23)c1 [compound 12, 2-Amino-5-[4-difluoromethyl-3-(3-methoxyphenyl)-1H-pyrazolo[3,4-b]pyridin-6-yl]benzonitrile]
other
  melting point: 233 °C
[1]
  inhibition at 1 µM: 12.1%
  inhibition at 10 µM: 95.8%
[2]
  inhibition at 1 µM: 23.8%
  inhibition at 10 µM: 75.8%

## O=c1[nH]c2ccc(-c3cc(C(F)(F)F)c4c(-c5ccccc5)n[nH]c4n3)cc2[nH]1 [compound 15, 5-(3-Phenyl-4-trifluoromethyl-1H-pyrazolo[3,4-b]pyridin-6-yl)-1,3-dihydrobenzoimidazol-2-one]
other
  melting point: 380 °C
[1]
  inhibition at 1 µM: -3%
  inhibition at 10 µM: 29%
[2]
  inhibition at 1 µM: -11%
  inhibition at 10 µM: 19%
